Experimental findings from PubChem BioAssay (NCI) are described below.

What all share (assay): DTP human tumour cell line panel, 48 h
The test system of assay [1] is COLO 205 colon.
Assay [2] concerns UO-31 renal.
The test system of assay [3] is SR leukemia.
In assay [4] the test system is 786-0 renal.
Assay [5] concerns MDA-MB-435.
The subject of assay [6] is LOX IMVI melanoma.
Assay [7] deals with U251 CNS.
Assay [8] concerns HCT-15 colon.
Assay [9] deals with K-562 leukemia.
Assay [10] has as its system SF-295 CNS.

Where “and” joins values, the source holds several entries; their conditions need not be identical. Equal entries are not always repeated.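 Each compound was tested at five concentrations against cells in 96-well plates for 48 hours. Here, GI50 denotes the concentration required for 50% inhibition of growth. TGI is the concentration that stops growth completely.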

Turning to `COc1cc(CCC[P+](c2ccccc2)(c2ccccc2)c2ccccc2)c(OC)c2c1OCO2`, the GI50 (commonly the concentration that inhibits growth by half) was 0.907 µM in assay [1]; 10.8 µM in [2]; 1.1 µM in [3]; 3.44 µM in assay [4]; 0.494 µM in assay [5]; 2.48 µM in assay [6]. The GI50 in assay [7] is 1.63 µM; in [8] it was 13.4 µM; in assay [9], 0.659 µM; in [10], 2.37 µM. Also, the TGI – broadly, the concentration at which net growth stops – in [1] turned out to be 3.38 µM; in assay [2], 44.1 µM; in assay [3] it was 13.3 µM; in assay [4] it was 16.5 µM; in assay [5] it was 5.91 µM; in assay [6], 12.1 µM. The concentration for total growth inhibition (TGI) in assay [7] is 17.5 µM; in assay [8] it was greater than 100 µM; in assay [9], greater than 100 µM; in assay [10], 7.39 µM.

`CC1SC(c2ccccc2Cl)N(NC(=O)C(O)c2ccccc2)C1=O` (centres undefined): the GI50 is 74.9 µM in [2]; 40 µM in assay [3]; greater than 100 µM in assay [4]; greater than 100 µM in [5]; greater than 100 µM in [6]; 66.9 µM in [7]. Also, the GI50 in [8] is 66.9 µM; in assay [9] it was 58.5 µM; in assay [10], 32.4 µM. For the same compound, the concentration for total growth inhibition (TGI) in [2], in assay [3], in assay [4], in assay [5], in assay [6] and in assay [7] was greater than 100 µM throughout. Further, the TGI in assay [8], in assay [9] and in [10] was greater than 100 µM in each case.

With `COC(=O)/C=C1/SC(=Nc2cccc(Cl)c2)N(CCc2c[nH]c3ccc(O)cc23)C1=O`, the GI50 in assay [1] is 2.05 µM; in assay [2], 1.43 µM; in [3], 0.522 µM; in [4] it was 1.67 µM; in assay [5], 1.68 µM; in [6] it was 1.52 µM. Also, the GI50 was 1.76 µM in assay [7], 1.5 µM in assay [8] and 1.85 µM in assay [10]. The concentration for total growth inhibition (TGI) in assay [1] stood at 4.04 µM; in [2] it was 2.88 µM; in [3] it was 7.13 µM; in assay [4], 3.4 µM; in assay [5] it was 3.96 µM; in assay [6], 2.98 µM. The TGI in assay [7] came to 3.51 µM; in [8], 3.32 µM; in assay [10], 4.15 µM.

On to `Oc1ccccc1-c1nn(CNc2ccc(Cl)cc2)c(=S)o1`, for which the GI50 in assay [1] is 7.01 µM; in [2] it was greater than 100 µM; in [3], 16 µM; in [4], greater than 100 µM; in assay [5], 3.21 µM; in [7], 31.9 µM. For the same compound, the GI50 is 20 µM in assay [8], 0.263 µM in assay [9] and greater than 100 µM in assay [10]. Further, the TGI in assay [1] is greater than 100 µM; in assay [2] it was greater than 100 µM; in [3], 43.4 µM; in assay [4] it was greater than 100 µM; in assay [5], greater than 100 µM; in assay [7], greater than 100 µM. In addition, the TGI in assay [8] was 45.4 µM; in assay [9], greater than 100 µM; in [10], greater than 100 µM.

Consider `c1ccc(SC(Sc2ccccc2)=C2CCC2)cc1`, for which the concentration for total growth inhibition (TGI) in assay [1], in [2], in assay [3], in assay [4], in assay [6] and in assay [7] was greater than 100 µM throughout. Moreover, the TGI in assay [8], in [9] and in [10] was greater than 100 µM throughout.

Consider `CC1=CCC2CC1C(C(=O)c1c[nH]c3ccccc13)=NC2(C)C` (centres undefined), for which the TGI in assay [1], in [2], in assay [3], in assay [4], in assay [5] and in assay [6] was greater than 100 µM in each case. Moreover, the TGI in assay [7], in assay [8] and in assay [9] was greater than 100 µM each time.

`CC(Oc1ccc2c(-c3ccc(Cl)cc3)cc(=O)oc2c1)C(=O)O` (centres undefined): the concentration for total growth inhibition (TGI) in [1], in [2], in assay [3], in assay [4], in [6] and in [7] was greater than 100 µM each time. Besides, the concentration for total growth inhibition (TGI) in [9] and in [10] was greater than 100 µM in each case.

Consider `COC(=O)CCC(=O)Nc1ccc(Cl)cc1C`, for which the TGI in assay [1], in assay [2], in assay [3], in [4], in [6] and in [7] was greater than 100 µM in each case. Further, the TGI in assay [8], in [9] and in assay [10] was greater than 100 µM throughout.

`NC(=S)N/N=C/c1ccc(OC(=O)COc2cc(Cl)c(Cl)cc2Cl)cn1`: the GI50 was 7.39 µM in [1]; 3.18 µM in assay [2]; 4.7 µM in assay [3]; 3.54 µM in [4]; 6.68 µM in assay [5]; 3.09 µM in assay [6]. In addition, the results for the GI50 in assay [7], in [8] and in assay [9] were 3.52 µM, 6.84 µM and 5.56 µM, respectively. Further, the total growth inhibition concentration (TGI) is greater than 100 µM in assay [1]; greater than 100 µM in [2]; greater than 100 µM in [3]; greater than 100 µM in assay [4]; greater than 100 µM in assay [5]; 26.6 µM in [6]. The total growth inhibition concentration (TGI) in [7], in assay [8] and in assay [9] was greater than 100 µM in each case.

Turning to `CC(C)(C)OC(=O)C1C(=O)NC(=O)CC1CC(OCc1ccccc1)C(OCc1ccccc1)C(COCc1ccccc1)OCc1ccccc1` (centres undefined), the GI50 was 11.1 µM and 4.48 µM in assay [2]; 30.1 µM and 6.47 µM in assay [3]; 47.6 µM and 12.3 µM in assay [4]; 45.1 µM and 9.81 µM in assay [5]; 34.7 µM and 8.43 µM in assay [6]; 19.6 µM and 5.39 µM in [7]. The GI50 in assay [8] is 60.5 µM and 21.4 µM; in assay [9], 41.5 µM and 11 µM. The concentration for total growth inhibition (TGI) in assay [2] was 24.8 µM and 16.2 µM; in assay [3] it was greater than 100 µM; in assay [4], greater than 100 µM; in assay [5], > 100 µM and 66.1 µM; in [6], > 100 µM and 21.4 µM; in assay [7], > 100 µM and 56.3 µM. Further, the TGI in assay [8], in [9] and in assay [10] was greater than 100 µM each time.
